Laboratory results reported in patent publication US20200306377A1, “METHODS FOR ENHANCING 5-AMINOLEVULINIC ACID-BASED MEDICAL IMAGING AND PHOTOTHERAPY” (priority 2017, published 2020).

Assays:
Format in all cases: cell-based
[1] = test system: SKBR3 human breast cancer cells; test: Comparison of 5-ALA intracellular uptake, fluorescence microscopy; conditions: incubation 3, 5, 16 h, QDs about 50 ug/mL, free 5-ALA 200 uM
Experimental: SKBR3 human breast cancer cells are cultivated in 6 well plates supplied with glass coverslips using McCoy's 5a medium from ATCC (3 mL per well). […] solution in deionized H2O at 100 mM was prepared and added when required at a final concentration of 200 uM (6 uL per well). After the predetermined incubation time, cells are fixed using the following protocol. The medium was removed and the cells gently rinsed with PBS buffer (2 mL per well), two mL fixation medium (3.7% formaldehyde in PBS) was added followed by incubation at room temperature (RT) for 15 min. The fixation medium was removed and fresh PBS was added to gently rinse the cells. The coverslips were removed from the wells and mounted on glass slides. […] Within each study, all microscopic settings (filter, light intensity, exposure time, and magnification) were identical.

[2] = test system: SKBR3 human breast cancer cells; test: Resistance to photo-bleaching after uptake and irradiation; conditions: after uptake, 1 minute of irradiation
Experimental: A 5-ALA solution in deionized H2O at 100 mM was prepared and added when required at a final concentration of 200 uM (6 uL per well). After the predetermined incubation time, cells are fixed using the following protocol. The medium was removed and the cells gently rinsed with PBS buffer (2 mL per well), two mL fixation medium (3.7% formaldehyde in PBS) was added followed by incubation at room temperature (RT) for 15 min. The fixation medium was removed and fresh PBS was added to gently rinse the cells. The coverslips were removed from the wells and mounted on glass slides. […] Within each study, all microscopic settings (filter, light intensity, exposure time, and magnification) were identical. Microscopic images of the cells after treatment with various types of QDs and/or 5-ALA are shown in FIGS. 2A-2L through FIGS. 4A-4K.

[3] = test system: normal human fibroblast cells (HFF); test: Labeling of normal fibroblast cells; conditions: 16 hrs, QD 50 μg/mL, free 5-ALA 0.2 mM

## NCC(=O)CCC(=O)O [free 5-ALA, 5-Aminolevulinic acid]
[1]
  emission at 630 nm: weaker emission
[2]
  photo-bleaching: rapid photo-bleaching and signal disappearance
[3]
  labeling of normal cells: lack of labeling
